Experimental data as given in patent US9006185B2, “Use of cell-permeable peptide inhibitors of the JNK signal transduction pathway for the treatment of various diseases” (Xigen Inflammation Ltd., priority 2008, dated 2015).
“Also recorded” adds a separate entry of the source.

What was measured:
[1] = tested on: Varicella-Zoster Virus (VZV); test: Plaque reduction assay against VZV in HFFs; format: cell-based, human; details: for Spread of VZV (pfu) ± SD: 24 hours
Protocol: Additionally, inhibitors of cell functions may be toxic to cells, which could non-specifically prevent virus growth. […] Since this may falsify the results, a cytotoxicity assay was carried out first, determining the tolerance of the cultured cells to the test compound. Subsequently, a plaque reduction assay was carried out and then activity of the JNK inhibitor peptide XG-102 (SEQ ID NO: 11) was tested with respect to […] (VZV) in infected cells. • A) Determination of the Cytotoxicity of all-D Retro-Inverso Ib(s) Peptides: • For determination of toxicity, cultured cells (human foreskin fibroblasts (HFFs)) were seeded in 96-well tissue culture plates. Medium containing DMSO (same level as 5 μM XG-102 (SEQ ID NO: 11)), or XG-102 (SEQ ID NO: 11) was added at several concentrations of (1, 2, and 5 μM) for 24 h. Subsequently, a Neutral Red assay was carried out. Neutral Red colorimetric assays for cytotoxicity assays (in sets of 6 replicates) were used to set the maximum dose for subsequent efficacy assays (as performed in Taylor et al, 2004, J. Virology, 78:2853-2862). Live cells absorb Neutral Red and, accordingly, the level of absorbance is a quantitative measure of cell viability and number. Neutral Red uptake is directly proportional to the number of cells and also reflects normal endocytosis. Therefore, a brief pulse of Neutral Red was added to the medium at 0 or 24 hours. After fixation and extraction, dye was added and the amount of dye in each sample was measured in an ELISA plate reader at 540 nm (see FIG. 4). […] In this plaque reduction assay, confluent human foreskin fibroblasts (HFFs) in 24-well plates were inoculated with VZV-infected HFFs at a ratio of 1:100 (multiplicity of infection MOI=0.01) and adsorbed to the cells for 2 hours. The excess virus was washed out, and medium containing 0 (DMSO only), 0.5, 1, or 2 μM XG-102 (SEQ ID NO: 11) was added. One sample was taken at this time to measure the initial level of infection; wherein each well contained ˜150 pfu. After 24 hours, duplicate wells were trypsinized, and then the cell suspensions were titered on MeWo cell monolayers in triplicate to determine the number of VZV-infected cells in each sample. During unrestricted growth, VZV usually increases by 10-fold over 1 day because it propagates by cell-cell spread. […]

C57BL/6 mice = test: Bleomycin induced acute lung inflammation; format: in vivo
Description: In order to determine the activity of the exemplary all-D retro-inverso IB(s) peptide XG-102 (SEQ ID NO: 11) in the treatment of Chronic Obstructive Pulmonary Disease (COPD) XG-102 (SEQ ID NO: 11) is used in an animal model of Bleomycin induced acute lung inflammation and fibrosis. The protocol of bleomycin induced inflammation and fibrosis has been described before in the literature. The aim of the Experiment was to investigate the effect of XG-102 (SEQ ID NO: 11) by subcutaneous (s.c.) route on neutrophil recruitment in broncho alveolar lavage (BAL) and lung in bleomycin induced inflammation and fibrosis: • at 1 day after a single bleomycin administration (10 mg/kg) • and at day 10 with the development of fibrosis 1) Method and Experimental Approach • The test compound XG-102 (SEQ ID NO: 11) at two doses and vehicle control were given s.c. with a single intranasal administration of bleomycin and mice were analyzed after 1 and 10 days. The animals used in the model were 10 C57BL/6 mice (8 weeks old) per group. The experimental groups included vehicle, 0.001 mg/kg XG-102 (SEQ ID NO: 11) and 0.1 mg/kg XG-102 (SEQ ID NO: 11), and the treatment consisted of repeated sub-cutaneous administration of XG-102 (SEQ ID NO: 11), prior to bleomycin administration then every 3 days. Acute lung inflammation at 24 h was monitored by BAL lavage, cytology, cell counts, and lung myeloperoxidase activity. The effect of the compound was compared with vehicle controls. Lung fibrosis was assessed histologically using hematoxylin and eosin staining at day 10 after the single dose of bleomycin. 1.1) Bleomycin Administration • Bleomycin sulfate in saline (10 mg/kg body weight) from Belton Laboratories (Montrouge, France) or saline were given through the airways by nasal instillation in a volume of 40 μL under light ketamine-xylasine anesthesia. The groups for Bleomycin administration for both bleomycin induced inflammation and fibrosis included: Vehicle, 0.001 mg/kg XG-102 (SEQ ID NO: 11) and 0.1 mg/kg XG-102 (SEQ ID NO: 11). The route for bleomycin induced inflammation was subcutaneous (s.c.) route, and administration occurred as a single dose. The route for bleomycin induced fibrosis was subcutaneous (s.c.) route, and administration occurred 3 times in 10 days. 1.2) Bronchioalveolar Lavage Fluid (BAL F) • After incision of the trachea, a plastic cannula was inserted and airspaces were washed using 0.3 ml of PBS solution, heated to 37° C. The samples collected were dispatched in 2 fractions: the first one (1 ml corresponding to the 2 first lavages) was used for mediator measurement and the second one for the cell determination (4 ml). The first fraction was centrifuged (600 g for 10 min) and supernatant was fractionated and kept at −80° C. until mediator determination. The cell pellet was then resuspended in 0.4 ml sterile NaCl, 0.9%, and pooled with the second fraction and was used for cell counts. […] 1.4) Cell Count and Determination • Total cell count was determined in BAL fluid using a Malassez hemocytometer. […] 1.5) TNF Measurement • TNF level in BALF was determined using ELISA assay kits (Mouse DuoSet, R&D system, Minneapolis, USA) according to manufacturer's instructions. […] 1.6) MPO-Measurement • MPO-levels were measured upon administration of XG-102. […]

Compound: CC(C)C[C@@H](NC(=O)[C@@H](Cc1ccccc1)NC(=O)[C@H]1CCCN1C(=O)[C@@H](CCC(N)=O)NC(=O)[C@H](NC(=O)[C@H]1CCCN1C(=O)[C@@H](CCCNC(=N)N)NC(=O)[C@@H](CO)NC(=O)[C@@H](CCC(N)=O)NC(=O)[C@H](N)CC(=O)O)C(C)C)C(=O)N[C@H](CC(N)=O)C(=O)N[C@H](CC(C)C)C(=O)N[C@@H](C(=O)N[C@@H](C(=O)N1CCC[C@@H]1C(=O)N[C@H](CCCNC(=N)N)C(=O)N[C@H](CCCCN)C(=O)N1CCC[C@@H]1C(=O)N[C@H](CCCNC(=N)N)C(=O)N1CCC[C@@H]1C(=O)N1CCC[C@@H]1C(=O)N[C@H](CCCNC(=N)N)C(=O)N[C@H](CCCNC(=N)N)C(=O)N[C@H](CCCNC(=N)N)C(=O)N[C@H](CCC(N)=O)C(=O)N[C@H](CCCNC(=N)N)C(=O)N[C@H](CCCNC(=N)N)C(=O)N[C@H](CCCCN)C(=O)N[C@H](CCCCN)C(=O)N[C@H](CCCNC(=N)N)C(=O)NCC(=O)O)[C@H](C)O)[C@H](C)O [XG-102]
- Spread of VZV (pfu) ± SD ([1]; 0.5 μM): 260 ± 53 pfu
- Spread of VZV (pfu) ± SD ([1]; 1.0 μM): 212 ± 48 pfu
- Spread of VZV (pfu) ± SD ([1]; 2.0 μM): 312 ± 79 pfu
- antiviral effect against VZV ([1]; 0.5, 1, 2 μM): potent inhibitor of Varizella Zoster Virus (VZV); also recorded: strong antiviral effect at all the concentrations tested
- VZV yields ([1]; all the concentrations tested (0.5-2 μM)): 200-300 pfu
- neutrophil recruitment and other cell types in bronchioalveolar space (C57BL/6 mice; 0.001 mg/kg s.c., single dose, 1 day): has no effect on neutrophil recruitment or other cell types
- neutrophil recruitment and total cells in bronchioalveolar lavage space (C57BL/6 mice; 0.1 mg/kg s.c., single dose, 1 day): reduces significantly the neutrophil recruitment and the number of total cells recruited
- histology, inflammatory cell accumulation (C57BL/6 mice; acute inflammation study): a decrease of the inflammatory cell accumulation in the peribronchial space
- MPO levels in the lung (C57BL/6 mice; s.c., MPO not significantly induced after bleomycin): only little effect on the MPO levels in the lung; also recorded: no effect on the MPO levels in the lung
- TNF level in BALF (C57BL/6 mice; s.c., TNF levels very low after BLM): a trend to reduction of the TNF level in BALF
